Test results taken from ChEMBL document CHEMBL5385891, “Design and discovery of novel dipeptide boronic acid ester proteasome inhibitors, an oral slowly-released prodrug for the treatment of multiple myeloma” (Eur J Med Chem, 2023).

Tests used:
20S proteasome = test: Inhibition of human 20S proteasome chymotrypsin-like activity using Suc-Leu-Leu-Val-Tyr-AMC as fluorogenic peptide pre-incubated for 10 mins with compound followed by substrate addition for 60 mins by spectrofluorimetric analysis; type: protein-complex assay
RPMI-8226 = test: Cytotoxicity against human RPMI-8226 cells assessed as inhibition of cell proliferation incubated for 72 hrs by Cell Titer-Glo luminescence assay; type: functional, cell-based; conditions: RPMI-8226, 72 h
[1] = Stability of the compound in stimulated […] fluid at pH 1.2 measured after 2 hrs; type: ADME; conditions: simulated gi fluid, pH 1.2, 2 h
[2] = Stability of the compound in stimulated […] fluid at pH 1.2 measured after 4 hrs; type: ADME; conditions: simulated gi fluid, pH 1.2, 4 h
[3] = Stability of the compound in stimulated […] fluid at pH 1.2 measured after 8 hrs; type: ADME; conditions: simulated gi fluid, pH 1.2, 8 h
[4] = Stability of the compound in stimulated […] fluid at pH 1.2 measured after 12 hrs; type: ADME; conditions: simulated gi fluid, pH 1.2, 12 h
[5] = Stability of the compound in stimulated […] fluid at pH 6.8 measured after 12 hrs; type: ADME; conditions: simulated intestinal fluid, read-out: Stability
[6] = Stability of the compound in stimulated […] fluid at pH 1.2 measured after 1 min; type: ADME; conditions: simulated gi fluid, pH 1.2, 1 min
[7] = Stability of the compound in stimulated […] fluid at pH 6.8 measured after 8 hrs; type: ADME; conditions: simulated intestinal fluid, read-out: Stability
[8] = Stability of the compound in stimulated […] fluid at pH 6.8 measured after 4 hrs; type: ADME; conditions: simulated intestinal fluid, read-out: Stability
[9] = Stability of the compound in stimulated […] fluid at pH 6.8 measured after 1 min; type: ADME; conditions: simulated intestinal fluid, read-out: Stability
[10] = Stability of the compound in stimulated […] fluid at pH 6.8 measured after 2 hrs; type: ADME; conditions: simulated intestinal fluid, read-out: Stability

| IC50 (20S proteasome) | Stability [1] | Stability [2] | Stability [3] | Stability [4] | remaining at 12 h [5] | Stability [6] | remaining at 8 h [7] | remaining at 4 h [8] | remaining at 1 min [9] | remaining at 2 h [10] | SMILES | IC50 (RPMI-8226) |
| --- | --- | --- | --- | --- | --- | --- | --- | --- | --- | --- | --- | --- |
| 6 nM |  |  |  |  |  |  |  |  |  |  | CC(C)C[C@H](NC(=O)C(NC(=O)c1cc(C(F)(F)F)ccc1C(F)(F)F)C1CCCC1)B(O)O (stereo partly drawn) | 6.9 nM |
| 9.6 nM | 98.08% | 97.62% | 98.81% | 96.98% | 78.7% | 62.06% | 85.7% | 91.5% | 90.1% | 83.7% | CC(C)C[C@H](NC(=O)CNC(=O)c1cc(Cl)ccc1Cl)B1OC2(C)CCC(C(=O)O)CC2(C)O1 (stereo partly drawn) | 5.3 nM |
| 124 nM |  |  |  |  |  |  |  |  |  |  | Cc1cc(C(=O)NCC(=O)N[C@@H](CC(C)C)B(O)O)no1 |  |
| 8.4 nM | 51.59% | 53.78% | 41.57% | 38.47% | 7.27% | 53.28% | 6.91% | 9.23% | 5.4% | 7.58% | CC(C)C[C@H](NC(=O)CNC(=O)c1cc(Cl)ccc1Cl)B1OC2(C)CC3C(=O)NC(=O)C3CC2(C)O1 (stereo partly drawn) | 7.5 nM |
| 15.8 nM |  |  |  |  |  |  |  |  |  |  | COc1ccc(OC)c(C(=O)NCC(=O)N[C@@H](CC(C)C)B(O)O)c1 | 57.9 nM |
| 20.6 nM |  |  |  |  |  |  |  |  |  |  | CC(C)C[C@H](NC(=O)CNC(=O)c1cc(F)ccc1F)B(O)O | 41.5 nM |
| 6.3 nM | 83.62% | 82.49% | 78.47% | 83.15% | 19.9% | 14.06% | 19.6% | 19.8% | 21% | 23.9% | CC(C)C[C@H](NC(=O)CNC(=O)c1cc(Cl)ccc1Cl)B1OC2C3CC(C(=O)O)C(O3)C2O1 (stereo partly drawn) | 4.4 nM |
| 5.2 nM | 60.84% | 61.18% | 58.58% | 58.21% | 14.2% | 6.7% | 12.5% | 12.4% | 7.36% | 12.9% | CC(C)C[C@H](NC(=O)CNC(=O)c1cc(Cl)ccc1Cl)B1OC2C3OC(CC3C(=O)O)C2(C)O1 (stereo partly drawn) | 5 nM |
| 7.7 nM | 35.35% | 50.68% | 52.71% | 48.53% | 1.33% | 19.33% | 1.35% | 1.18% | 1.9% | 1.79% | CC(C)C[C@H](NC(=O)CNC(=O)c1cc(Cl)ccc1Cl)B1OC2C3OC(c4ccccc43)C2O1 (stereo partly drawn) | 6.9 nM |
| 86.7 nM |  |  |  |  |  |  |  |  |  |  | CC(C)C[C@H](NC(=O)C1(NC(=O)c2cc(C(F)(F)F)ccc2C(F)(F)F)CC1)B(O)O |  |
